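Values below derive from 48-hour exposures of cells grown in 96-well plates, with endpoints linearly interpolated between the two concentrations bracketing the appropriate inhibition level. GI50: concentration for 50% inhibition of growth.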 Active and inactive are the calls of the source. Rule as the data show it: active = GI50 up to about 1.1 µM and inactive = higher.
What was measured:
Test in all cases: NCI tumour cell line growth inhibition, 48 h
[1] = tested on: LXFL 529
[2] = tested on: K562
[3] = tested on: COLO 205
[4] = tested on: CAKI-1
[5] = tested on: A549
[6] = tested on: DMS-273
[7] = tested on: DLD-1
[8] = tested on: HT-29
[9] = tested on: SF-295
[10] = tested on: NCI-H522
[11] = tested on: HOP-18
[12] = tested on: OVCAR-5
[13] = tested on: SF-268
[14] = tested on: TK-10
[15] = tested on: HCT-116
[16] = tested on: HCC 2998
[17] = tested on: HCT-15
[18] = tested on: A498
[19] = tested on: RXF 393
[20] = tested on: UACC-257
[21] = tested on: SK-MEL-28
[22] = tested on: UO-31
[23] = tested on: KM12
[24] = tested on: SNB-75
[25] = tested on: SK-OV-3
[26] = tested on: SR
[27] = tested on: UACC-62
[28] = tested on: IGROV-1
[29] = tested on: SW-620
[30] = tested on: SK-MEL-5
[31] = tested on: KM-20L2
[32] = tested on: SNB-19
[33] = tested on: M19-MEL
[34] = tested on: LOX IMVI
[35] = tested on: OVCAR-3
[36] = tested on: CCRF-CEM
[37] = tested on: OVCAR-4
[38] = tested on: NCI-H460
[39] = tested on: HL-60
[40] = tested on: MOLT-4
[41] = tested on: NCI-H226
[42] = tested on: RXF 631
[43] = tested on: EKVX
[44] = tested on: SF-539
[45] = tested on: Malme-3M
[46] = tested on: 786-0
[47] = tested on: DMS-114
[48] = tested on: SK-MEL-2
[49] = tested on: NCI-H23
[50] = tested on: HOP-92
[51] = tested on: M14
[52] = tested on: ACHN
[53] = tested on: SN12C
[54] = tested on: SNB-78
[55] = tested on: HOP-62
[56] = tested on: U-251
[57] = tested on: RPMI-8226
[58] = tested on: OVCAR-8

Q: For `CCOC(=O)c1c2ccc(/C=C/c3ccccc3)ccc-2c(C(=O)OCC)c1N`, which GI50 [1] is on record?
A: 78.7 µM (inactive)

Q: What about the GI50 [2] of the same molecule?
A: > 100 µM (inactive)

Q: And the GI50 [3]?
A: > 100 µM (inactive)

Q: What about the GI50 [4] of the same molecule?
A: > 100 µM (inactive)

Q: What about the GI50 [5] of the same molecule?
A: > 100 µM (inactive)

Q: What about the GI50 [6] of the same molecule?
A: > 100 µM (inactive)

Q: What about the GI50 [7] of the same molecule?
A: > 100 µM (inactive)

Q: What about the GI50 [8] of the same molecule?
A: 95.3 µM (inactive)

Q: And the GI50 [9]?
A: > 100 µM (inactive)

Q: And the GI50 [10]?
A: > 100 µM (inactive)

Q: And the GI50 [11]?
A: > 100 µM (inactive)

Q: And the GI50 [12]?
A: > 100 µM (inactive)

Q: And the GI50 [13]?
A: > 100 µM (inactive)

Q: And the GI50 [14]?
A: > 100 µM (inactive)

Q: What about the GI50 [15] of the same molecule?
A: > 100 µM (inactive)

Q: What about the GI50 [16] of the same molecule?
A: 95.5 µM (inactive)

Q: And the GI50 [17]?
A: > 100 µM

Q: What about the GI50 [18] of the same molecule?
A: 36.1 µM (inactive)

Q: What about the GI50 [19] of the same molecule?
A: > 100 µM (inactive)

Q: And the GI50 [20]?
A: > 100 µM (inactive)

Q: What about the GI50 [21] of the same molecule?
A: > 100 µM (inactive)

Q: And the GI50 [22]?
A: > 100 µM (inactive)

Q: What about the GI50 [23] of the same molecule?
A: 54.6 µM (inactive)

Q: What about the GI50 [24] of the same molecule?
A: 36.7 µM (inactive)

Q: And the GI50 [25]?
A: 86.1 µM (inactive)

Q: And the GI50 [26]?
A: 4.2 µM (inactive)

Q: What about the GI50 [27] of the same molecule?
A: 73.6 µM (inactive)

Q: And the GI50 [28]?
A: > 100 µM (inactive)

Q: What about the GI50 [29] of the same molecule?
A: > 100 µM (inactive)

Q: And the GI50 [30]?
A: > 100 µM (inactive)

Q: What about the GI50 [31] of the same molecule?
A: > 100 µM (inactive)

Q: What about the GI50 [32] of the same molecule?
A: > 100 µM (inactive)

Q: And the GI50 [33]?
A: > 100 µM (inactive)

Q: And the GI50 [34]?
A: > 100 µM (inactive)

Q: What about the GI50 [35] of the same molecule?
A: > 100 µM (inactive)

Q: And the GI50 [36]?
A: > 100 µM (inactive)

Q: What about the GI50 [37] of the same molecule?
A: 34.1 µM (inactive)

Q: What about the GI50 [38] of the same molecule?
A: > 100 µM (inactive)

Q: What about the GI50 [39] of the same molecule?
A: > 100 µM (inactive)

Q: And the GI50 [40]?
A: > 100 µM (inactive)

Q: And the GI50 [41]?
A: > 100 µM (inactive)

Q: And the GI50 [42]?
A: > 100 µM (inactive)

Q: And the GI50 [43]?
A: > 100 µM (inactive)

Q: What about the GI50 [44] of the same molecule?
A: > 100 µM (inactive)

Q: What about the GI50 [45] of the same molecule?
A: > 100 µM (inactive)

Q: And the GI50 [46]?
A: > 100 µM (inactive)

Q: And the GI50 [47]?
A: > 100 µM (inactive)

Q: What about the GI50 [48] of the same molecule?
A: > 100 µM (inactive)

Q: And the GI50 [49]?
A: 32 µM (inactive)

Q: And the GI50 [50]?
A: > 100 µM (inactive)

Q: What about the GI50 [51] of the same molecule?
A: > 100 µM (inactive)

Q: And the GI50 [52]?
A: > 100 µM (inactive)

Q: With `Clc1c(Cl)c2c(Cl)c(Cl)c1C[PH](c1ccccc1)(c1ccccc1)CC[PH](c1ccccc1)(c1ccccc1)Cc1c(Cl)c(Cl)c(c(Cl)c1Cl)C[PH](c1ccccc1)(c1ccccc1)CC[PH](c1ccccc1)(c1ccccc1)C2` as the molecule, how does the GI50 [53] read?
A: 3.28 µM (inactive)

Q: And the GI50 [1]?
A: 2.15 µM (inactive)

Q: And the GI50 [2]?
A: 2.09 µM (inactive)

Q: And the GI50 [3]?
A: 1.53 µM (inactive)

Q: And the GI50 [4]?
A: 7.06 µM (inactive)

Q: And the GI50 [5]?
A: 3.72 µM (inactive)

Q: And the GI50 [6]?
A: 2.42 µM (inactive)

Q: What about the GI50 [7] of the same molecule?
A: 2.37 µM (inactive)

Q: What about the GI50 [8] of the same molecule?
A: 2.21 µM (inactive)

Q: And the GI50 [9]?
A: 3.35 µM (inactive)

Q: What about the GI50 [10] of the same molecule?
A: 2.56 µM (inactive)

Q: What about the GI50 [11] of the same molecule?
A: 8.17 µM (inactive)

Q: What about the GI50 [12] of the same molecule?
A: 3.15 µM (inactive)

Q: And the GI50 [13]?
A: 3.39 µM (inactive)

Q: And the GI50 [14]?
A: 3.18 µM (inactive)

Q: What about the GI50 [15] of the same molecule?
A: 1.79 µM (inactive)

Q: And the GI50 [16]?
A: 3.63 µM (inactive)

Q: And the GI50 [17]?
A: 8.39 µM

Q: And the GI50 [18]?
A: 11.4 µM (inactive)

Q: What about the GI50 [19] of the same molecule?
A: 2.49 µM (inactive)

Q: What about the GI50 [20] of the same molecule?
A: 2.38 µM (inactive)

Q: What about the GI50 [21] of the same molecule?
A: 2.02 µM (inactive)

Q: And the GI50 [22]?
A: 6.49 µM (inactive)

Q: What about the GI50 [54] of the same molecule?
A: 3.82 µM (inactive)

Q: And the GI50 [23]?
A: 2.34 µM (inactive)

Q: And the GI50 [24]?
A: 3.46 µM (inactive)

Q: What about the GI50 [25] of the same molecule?
A: 6.84 µM (inactive)

Q: What about the GI50 [27] of the same molecule?
A: 1.85 µM (inactive)

Q: What about the GI50 [28] of the same molecule?
A: 2.86 µM (inactive)

Q: What about the GI50 [29] of the same molecule?
A: 3.31 µM (inactive)

Q: What about the GI50 [30] of the same molecule?
A: 1.67 µM (inactive)

Q: What about the GI50 [31] of the same molecule?
A: 2.65 µM (inactive)

Q: What about the GI50 [32] of the same molecule?
A: 2.67 µM (inactive)

Q: And the GI50 [33]?
A: 2.81 µM (inactive)

Q: What about the GI50 [34] of the same molecule?
A: 2.52 µM (inactive)

Q: What about the GI50 [35] of the same molecule?
A: 2.66 µM (inactive)

Q: And the GI50 [36]?
A: 2.46 µM (inactive)

Q: And the GI50 [37]?
A: 1.11 µM (active)

Q: And the GI50 [38]?
A: 2.77 µM (inactive)

Q: And the GI50 [39]?
A: 1.36 µM (inactive)

Q: What about the GI50 [40] of the same molecule?
A: 3.27 µM (inactive)

Q: And the GI50 [41]?
A: 5.07 µM (inactive)

Q: And the GI50 [42]?
A: 6.68 µM (inactive)

Q: And the GI50 [43]?
A: 9.08 µM (inactive)

Q: What about the GI50 [55] of the same molecule?
A: 4.95 µM (inactive)

Q: What about the GI50 [44] of the same molecule?
A: 3.68 µM (inactive)

Q: What about the GI50 [45] of the same molecule?
A: 2.38 µM (inactive)

Q: What about the GI50 [46] of the same molecule?
A: 4.67 µM (inactive)

Q: What about the GI50 [47] of the same molecule?
A: 1.68 µM (inactive)

Q: What about the GI50 [48] of the same molecule?
A: 2.16 µM (inactive)

Q: What about the GI50 [49] of the same molecule?
A: 2.01 µM (inactive)

Q: What about the GI50 [56] of the same molecule?
A: 3.22 µM (inactive)

Q: What about the GI50 [50] of the same molecule?
A: 2.26 µM (inactive)

Q: What about the GI50 [57] of the same molecule?
A: 1.28 µM (inactive)

Q: What about the GI50 [58] of the same molecule?
A: 3.29 µM (inactive)

Q: What about the GI50 [51] of the same molecule?
A: 4.51 µM (inactive)

Q: And the GI50 [52]?
A: 4.69 µM (inactive)

Q: What does the source list for `COC(=O)C(=O)C(C(=O)C(=O)Nc1ccccc1[N+](=O)[O-])c1nc2ccc([N+](=O)[O-])cc2nc1O` (configuration not stated)?
A: GI50 [53]: > 100 µM (inactive); GI50 [1]: > 100 µM (inactive); GI50 [2]: > 100 µM (inactive); GI50 [3]: > 100 µM (inactive); GI50 [4]: > 100 µM (inactive); GI50 [5]: > 100 µM (inactive); GI50 [6]: > 100 µM (inactive); GI50 [8]: > 100 µM (inactive); GI50 [9]: > 100 µM (inactive); GI50 [10]: > 100 µM (inactive); GI50 [11]: > 100 µM (inactive); GI50 [12]: > 100 µM (inactive); GI50 [13]: > 100 µM (inactive); GI50 [14]: > 10 µM (inactive); GI50 [15]: > 100 µM (inactive); GI50 [17]: > 100 µM; GI50 [18]: > 100 µM (inactive); GI50 [19]: > 100 µM (inactive); GI50 [20]: > 100 µM (inactive); GI50 [21]: > 100 µM (inactive); GI50 [22]: > 100 µM (inactive); GI50 [54]: > 100 µM (inactive); GI50 [23]: > 100 µM (inactive); GI50 [24]: > 100 µM (inactive); GI50 [25]: > 100 µM (inactive); GI50 [26]: > 100 µM (inactive); GI50 [27]: > 100 µM (inactive); GI50 [28]: > 100 µM (inactive); GI50 [29]: > 100 µM (inactive); GI50 [30]: 46.2 µM (inactive); GI50 [31]: > 100 µM (inactive); GI50 [32]: > 100 µM (inactive); GI50 [33]: > 100 µM (inactive); GI50 [34]: > 100 µM (inactive); GI50 [36]: > 100 µM (inactive); GI50 [37]: > 100 µM (inactive); GI50 [38]: > 100 µM (inactive); GI50 [39]: > 100 µM (inactive); GI50 [40]: > 100 µM (inactive); GI50 [41]: > 100 µM (inactive); GI50 [42]: > 100 µM (inactive); GI50 [43]: > 100 µM (inactive); GI50 [45]: > 100 µM (inactive); GI50 [46]: > 100 µM (inactive); GI50 [47]: > 100 µM (inactive); GI50 [48]: > 100 µM (inactive); GI50 [49]: > 100 µM (inactive); GI50 [56]: > 100 µM (inactive); GI50 [50]: > 100 µM (inactive); GI50 [57]: > 100 µM (inactive); GI50 [58]: > 100 µM (inactive); GI50 [51]: > 100 µM (inactive); GI50 [52]: > 100 µM (inactive)

From ChEMBL document CHEMBL1201862, “PubChem BioAssay data set” (2004)
